Format in all cases: in vivo
The subject of one experiment is Gala apples. The experiment is described as follows: Apple coloration in Gala variety, study repeated with Retain added (Example 2, Table 3). The note with it: 300 ppm, 34 hours post spray; for Average % Red Pixel Area: Retain added to the application; for Fold Change From control: Retain added. The method, then:
(§1) To determine if the mixture provided unexpected results, the observed combined efficacy (“OCE”) was divided by the expected combined efficacy (“ECE”) wherein the ECE is calculated by the Abbott method: […]
(§2) wherein ECE is the expected combined efficacy and in which A and B are the fold change from control given by the single active ingredients. If the ratio between the OCE of the mixture and the ECE of the mixture is greater than 1, then greater than expected interactions are present in the mixture. (Gisi, Synergistic Interaction of Fungicides in Mixtures, The American Phytopathological Society, 86:11, 1273-1279, 1996).
10 sets of unripened apples, Gala variety, harvested three weeks before the normal harvest date, were each foliar sprayed with either 1) 0.05% Regulaid® as a control, 2) 300 ppm jasmonic acid, 3) 300 ppm ACC or 4) a mixture of 300 ppm jasmonic acid and 300 ppm ACC. 34 hours post spray application percent red pixel area (shaded) was measured. Additionally, this study was repeated while adding [S]-trans-2-Amino-4-(2-aminoethoxy)-3-butenoic acid hydrochloride (Retain®, Retain is a registered trademark of Valent BioSciences LLC) to the application.

In another experiment the test system is Evercrisp apples. The experiment is described as follows: Apple coloration in Evercrisp variety (Example 9). The note with it: 34 hours post spray.
In experiment [1] the test system is Pink Lady apples. Description: Apple coloration in Pink Lady variety (Example 12). The note with it: 34 hours post spray. The procedure:
as §1, §2
(§3) 10 sets of unripened apples, Pink Lady variety, harvested three weeks before the normal harvest date, were each foliar sprayed with either 1) 0.05% Regulaid® as a control, 2) 50 ppm jasmonic acid, 3) 300 ppm jasmonic acid, 4) 50 ppm ACC, 5) 300 ppm ACC, 6) a mixture of 50 ppm jasmonic acid and 50 ppm ACC, 7) a mixture of 50 ppm jasmonic acid and 300 ppm ACC, 8) a mixture of 300 ppm jasmonic acid and 50 ppm ACC or 9) a mixture of 300 ppm jasmonic acid and 300 ppm ACC. 34 hours post spray application percent red pixel area (shaded) was measured. The OCE/ECE ratio formula was modified to ECE=A+B−(A*B) to account for reduced average % red pixel area over control for each of the ACC applications.

For experiment [2], the system named is Pink Lady apples. The experiment is described as follows: Apple coloration in Pink Lady variety, 100 ppm (Example 13). The note with it: 34 hours post spray. The procedure: as §1, §2
10 sets of unripened apples, Pink Lady variety, harvested three weeks before the normal harvest date, were each foliar sprayed with either 1) 0.05% Regulaid® as a control, 2) 100 ppm jasmonic acid, 3) 100 ppm ACC and 4) a mixture of 100 ppm jasmonic acid and 100 ppm ACC. 34 hours post spray application percent red pixel area (shaded) was measured. The OCE/ECE ratio formula was modified to ECE=A+B−(A*B) to account for reduced average % red pixel area over control for each of the ACC applications.

Another experiment has as its system Cripps Pink apples. Description: Apple coloration in Cripps Pink variety, repeat (Example 11). The conditions noted are these: Cripps Pink (Example 11, repeat), 34 hours post spray. The method, then: as §1, §2
as §3, with “The experiment detailed in Example 10 was repeated. Specifically, 10” for “10”, “apples, Cripps” for “apples,”, “Pink” for “Pink Lady”

With `NC1(C(=O)O)CC1` [ACC, 1-amino-1-cyclopropanecarboxylic acid], the “Average % Red Pixel Area” value in the experiment on Gala apples is on record as 4.71%; in the experiment with Evercrisp apples (50 ppm), 46.78%; in the experiment with Evercrisp apples (300 ppm) it was 72.16%; in the experiment with Pink Lady apples [1] (50 ppm), 24.63%; in the experiment with Pink Lady apples [1] (300 ppm), 28.83%; in the experiment on Pink Lady apples [2], 19.32%. The “Average % Red Pixel Area” value was 34.68% with Cripps Pink apples (50 ppm) and 48.78% in the experiment with Cripps Pink apples (300 ppm). For the same compound, the “Fold Change From control” value came to 1.03 in the experiment with Gala apples; 1.48 in the experiment with Evercrisp apples (50 ppm); 2.82 in the experiment with Evercrisp apples (300 ppm); 0.68 with Pink Lady apples [1] (50 ppm); 0.80 with Pink Lady apples [1] (300 ppm); 0.80 in the experiment on Pink Lady apples [2]. In addition, the entries for the “Fold Change From control” value in the experiment with Cripps Pink apples (50 ppm) and with Cripps Pink apples (300 ppm) were 0.70 and 0.99, respectively.
For `CC/C=C\C[C@H]1C(=O)CC[C@@H]1CC(=O)O` [jasmonic acid], the “Average % Red Pixel Area” value amounted to 24.85% in the experiment on Gala apples; 40.67% in the experiment on Evercrisp apples (50 ppm); 70.81% with Evercrisp apples (300 ppm); 68.55% in the experiment on Pink Lady apples [1] (50 ppm); 76.7% in the experiment on Pink Lady apples [1] (300 ppm); 49.9% in the experiment on Pink Lady apples [2]. Moreover, the figures for the “Average % Red Pixel Area” value with Cripps Pink apples (50 ppm) and in the experiment with Cripps Pink apples (300 ppm) were 63.91% and 85.52%, respectively. The “Fold Change From control” value in the experiment on Gala apples came to 5.41; in the experiment on Evercrisp apples (50 ppm), 1.15; with Evercrisp apples (300 ppm), 2.75; in the experiment with Pink Lady apples [1] (50 ppm), 1.91; in the experiment on Pink Lady apples [1] (300 ppm), 2.13; with Pink Lady apples [2], 2.06. Moreover, the “Fold Change From control” value in the experiment with Cripps Pink apples (50 ppm) amounted to 1.30; with Cripps Pink apples (300 ppm), 1.74.
